Assay results from patent publication US20240139196A1, “COMBINATION TREATMENTS IN DIFFICULT TO TREAT PATIENTS WITH ADVANCED AND/OR METASTATIC TROP-2 OVEREXPRESSING CANCERS” (G1 Therapeutics, Inc., priority 2021, published 2024).
Several values for one entry are separate records, joined by “and”; a condition that tells them apart may be missing. Equal entries are not always repeated. Entries after “also recorded” stand apart in the source; their conditions may differ.

Tests used:
[1] = test system: patients with mUC; details: in vivo; cited from earlier work
[2] = test system: patients with unresectable locally advanced or metastatic TNBC who received at least 2 prior treatments; experiment: Phase 2 single-arm open-label study of trilaciclib administered prior to sacituzumab govitecan-hziy (NCT05113966); assay type: in vivo, human; details: for Grade ≥3 TRAEs related to the named study drug / patients with AEs related to the named study drug: combination study, attribution by investigators
Description: Early results from initial human clinical trials (see, e.g., NCT05113966) have shown trilaciclib's ability to drastically reduce side effects associated with sacituzumab govitecan administration, including a reduction in the incidence of severe (Grade 3/4) neutropenia (see, for example, Example 1, FIG. 2A). In the initial studies, 8 female patients (median age 55.0 years) had been enrolled and completed a median 3 (range 1-6) 21-day cycles, wherein sacituzumab govitecan was administered on days 1 and 8 of each 21-day cycle, and trilaciclib was administered over a 30 minute intravenous administration within 4 hours prior to administration of sacituzumab govitecan on days 1 and 8 of each 21-day cycle (see, e.g., FIG. 1). All patients had received a prior taxane and 7 had received a prior immune checkpoint inhibitor (5 atezolizumab, 2 pembrolizumab; 4 in the adjuvant setting, 3 in the metastatic setting). Severe (Grade 3/4) neutropenia occurred in only 1 patient (12.5% with trilaciclib compared with 52% in the ASCENT study). No patients had Grade 3/4 anemia or thrombocytopenia, and none had febrile neutropenia or a serious infection. Granulocyte colony-stimulating factors were administered to 2 patients (25%) and 1 patient required intravenous antibiotics. No patients required red blood cell/platelet transfusions or erythropoiesis-stimulating agents. […] There was only 1 treatment-related adverse event of diarrhea.
FIG. 1 is a schematic of a human clinical trial assessing the safety and efficacy of trilaciclib administered with sacituzumab govitecan-hziy (Trodelvy®) in patients with locally advanced or metastatic TNBC who received at least 2 prior treatments, at least 1 in the metastatic setting. The study will include 3 study phases: Screening Phase, treatment Phase, and Survival Follow-up Phase. The treatment phase consists of 21-day cycles: Trilaciclib will be administered IV prior to sacituzumab govitecan-hziy infusions. Trilaciclib will be administered via IV prior to sacituzumab govitecan-hziy administration at 240 mg/m^2. Sacituzumab govitecan-hziy will be administered via IV at 10 mg/kg. The study will include 3 study phases: Screening Phase, Treatment Phase, and Survival Follow up Phase. The Treatment Phase begins on the day of the first dose of study treatment and completes at the Safety Follow-up Visit. The first Survival Follow-up assessment should occur approximately 3 months after the End of Treatment Visit. DC=discontinuation, PD=Progressive disease, PI=Principal Investigator, WD=Withdraw.
An exploratory Phase 2, multicenter, open-label study evaluating the safety and efficacy of trilaciclib administered with sacituzumab govitecan-hziy in patients with unresectable locally advanced or metastatic TNBC who received at least 2 prior treatments, at least 1 in the metastatic setting, is provided herein.
Trilaciclib plus sacituzumab govitecan-hziy will be administered intravenously (IV) in 21-day cycles as follows: • Trilaciclib 240 mg/m^2 administered as a 30-minute IV infusion completed within 4 hours prior to the start of sacituzumab govitecan-hziy on Day 1 and Day 8 of each 21-day treatment cycle. • Sacituzumab govitecan-hziy 10 mg/kg administered IV on Day 1 and Day 8 of each 21-day treatment cycle.
The first infusion of sacituzumab govitecan-hziy is administered over 3 hours and the patient is observed during the infusion and for at least 30 minutes following the initial dose for signs or symptoms of infusion-related reactions. Subsequent infusions of sacituzumab govitecan-hziy may be administered over 1 to 2 hours if prior infusions were tolerated and patients should be observed during the infusion and for at least 30 minutes after infusion. […]

[3] = test system: patients with metastatic urothelial carcinoma (mUC) progressing after platinum-based chemotherapy and ICIs; details: following progression; cited from earlier work
[4] = test system: patients with PD-L1 positive locally advanced unresectable/metastatic TNBC; details: cited from earlier work
[5] = test system: patients with unresectable locally advanced/metastatic triple-negative breast cancer, PD-L1 positive; details: paclitaxel with vs without atezolizumab, cited from earlier work
[6] = test system: patients with locally recurrent unresectable or metastatic TNBC whose tumors express PD-L1 (CPS ≥10); details: cited from earlier work
[7] = test system: patients with metastatic TNBC; details: N=108; cited from earlier work
[8] = test system: patients with unresectable locally advanced or metastatic triple-negative breast cancer (mTNBC); details: cited from earlier work
[9] = test system: patients treated with sacituzumab govitecan-hziy; details: cited from earlier work
[10] = test system: patients with locally advanced or mUC after platinum-containing chemotherapy and PD-1 or PD-L1 inhibitor; details: cited from earlier work
[11] = trilaciclib prior to sacituzumab govitecan, 8 patients
[12] = trilaciclib prior to sacituzumab govitecan, RECIST v1.1, 8 patients
[13] = mTNBC relapsed after at least two prior chemotherapies
[14] = vs physician's choice of single-agent chemotherapy

In the case of `COc1cc(OC)cc(N(CCNC(C)C)c2ccc3ncc(-c4cnn(C)c4)nc3c2)c1` [erdafitinib], the “objective response rates (ORRs)” value [1] is given as “approximately 40%”.
In the case of `CN1CCN(c2ccc(Nc3ncc4cc5n(c4n3)C3(CCCCC3)CNC5=O)nc2)CC1` [trilaciclib, 2′-((5-(4-methylpiperazin-1-yl)pyridin-2-yl)amino)-7′,8′-dihydro-6′H-spiro(cyclohexane-1,9′-pyrazino(1′,2′:1,5)pyrrolo(2,3-d)pyrimidin)-6′-one], the “Grade ≥3 TRAEs related to the named study drug” value ([2]; 8 patients) is reported as “Grade 4 neutrophil count decreased”, the “patients with AEs related to the named study drug” value ([2]; 8 patients) is reported as 2 patients and the “effect of inclusion of trilaciclib on side effects associated with sacituzumab govitecan” value ([2]; initial studies, compared with ASCENT study) is reported as “drastically reduces the side effects”. For the same compound, the “Severe (Grade 3/4) neutropenia, number of patients” value ([2]; trilaciclib 240 mg/m^2 IV within 4 hours prior to sacituzumab govitecan-hziy 10 mg/kg, days 1 and 8 of 21-day cycles, 8 patients) was 1 patient, the tolerability ([2]; trilaciclib administered prior to sacituzumab govitecan, preliminary data) was “well tolerated” and the “Severe (Grade 3/4) neutropenia, percentage of patients” value ([2]; trilaciclib prior to sacituzumab govitecan, days 1 and 8 of 21-day cycles, 8 patients) was 12.5%. For the same compound, the “Grade 3/4 anemia, patients” value [2, 11] was “No patients”, the “Grade 3/4 thrombocytopenia, patients” value [2, 11] was “No patients” and the “Granulocyte colony-stimulating factors administered, number of patients” value [2, 11] was 2 patients. For the same compound, the “Granulocyte colony-stimulating factors administered, percentage of patients” value [2, 11] was 25%, the “febrile neutropenia, patients” value [2, 11] was “none” and the “patients with Grade ≥3 TRAEs” value [2, 11] was “Two”. The “patients with ≥1 treatment-related adverse event (TRAE)” value [2, 11] was 5 patients, the “required erythropoiesis-stimulating agents, patients” value [2, 11] was “No patients” and the “required intravenous antibiotics, number of patients” value [2, 11] was 1 patient. For the same compound, the “required red blood cell/platelet transfusions, patients” value [2, 11] was “No patients”, the “serious adverse events reported to date” value [2, 11] was “no serious AEs; also recorded: no serious adverse events” and the “serious infection, patients” value [2, 11] was “none”. The “withdrawn due to an adverse event, patients” value [2, 11] was “No patients”, the “treatment-related adverse event (TRAE) of diarrhea, number” value ([2]; trilaciclib prior to sacituzumab govitecan, 8 patients, trilaciclib- and sacituzumab govitecan-related) was 1 and the “partial response, number of patients” value [2, 12] was “one”. For the same compound, the “stable disease, number of patients” value [2, 12] was “three”.
For `CC[C@]12C=CCN3CC[C@@]4(c5cc([C@@]6(C(=O)OC)C[C@@H]7C[C@@H](C(C)(F)F)CN(Cc8c6[nH]c6ccccc86)C7)c(OC)cc5N(C)[C@H]4[C@@](O)(C(=O)OC)[C@@H]1OC(C)=O)[C@@H]32` [vinflunine], the “median overall survival (OS)” value [3] is listed as 7-8 months and the response rates [3] is listed as “approximately 10%”.
In the case of “atezolizumab: a programmed death-ligand 1 (PD-L1) blocking antibody (immune checkpoint inhibitor)”, the “survival (lived for an average of)” value ([4]; PD-L1 positive subset, atezolizumab or placebo plus nab-paclitaxel) is given as 25 months, the “median progression-free survival (PFS)” value ([4]; PD-L1 positive tumors, atezolizumab plus nab-paclitaxel vs placebo plus nab-paclitaxel) is given as 7.4 months and the “PFS hazard ratio [HR]” value ([4]; PD-L1 positive, atezolizumab plus nab-paclitaxel vs placebo plus nab-paclitaxel) is given as 0.60. For the same compound, the “PFS HR” value ([5]; frontline) was 0.82 and the “survival HR” value [5] was 1.11.
In the case of “pembrolizumab: PD-1 inhibitor given in combination with chemotherapy for PD-L1 expressing TNBC”, the “median PFS” value ([6]; pembrolizumab plus chemotherapy arm) is given as 9.7 months and the “PFS HR” value ([6]; pembrolizumab plus chemotherapy vs placebo arm) is given as 0.65.
For sacituzumab govitecan, the ORR [7] is listed as 33.3%, the “median duration of response (DOR)” value [7] is listed as 7.7 months and the “patients having a DOR of ≥6 months” value [7] is listed as 55.5%. For the same compound, the “patients having a DOR of ≥12 months” value [7] was 16.7%, the “Grade ≥3 TRAEs related to the named study drug” value ([2]; 8 patients) was “Grade 3 alopecia and Grade 3 neutropenia; also recorded: Grade 4 neutrophil count decreased” and the “patients with AEs related to the named study drug” value ([2]; 8 patients) was 5 patients. The “Severe (Grade 3/4) neutropenia, patients” value ([8]; ASCENT study, without trilaciclib) was 52%, the “G-CSF used as a rescue therapy, patients” value ([8]; ASCENT study) was 44% and the “adverse reaction leading to a dose reduction, patients” value ([8]; ASCENT study) was 22%. The “adverse reaction leading to treatment interruption, patients” value ([8]; ASCENT study) was 45%, the “permanently discontinued for adverse reactions, patients” value ([8]; mTNBC patients, ASCENT study) was 5% and the “median overall survival (OS)” value [8, 13] was 11.8 months. For the same compound, the “median progression free survival (PFS)” value [8, 13] was 4.8 months, the “OS hazard ratio (HR)” value [8, 14] was 0.51 and the “PFS hazard ratio [HR]” value [8, 14] was 0.43. For the same compound, the “Diarrhea, patients” value ([9]; all grades, all patients treated) was 65%, the “neutropenia, patients” value ([9]; all grades) was 61% and the “Grade 3-4 diarrhea, patients” value ([9]; all patients treated) was 12%. For the same compound, the “Grade 3-4 neutropenia, patients” value ([9]; in vivo) was 47%, the “Neutropenic colitis, patients” value ([9]; in vivo) was 0.5% and the “febrile neutropenia, patients” value ([9]; in vivo) was 7%. For the same compound, the “intestinal perforation following diarrhea, number of patients” value ([9]; in vivo) was “One”, the “objective (overall) response rate (ORR)” value ([10]; 10 mg/kg intravenously, days 1 and 8 of a 21-day cycle, 112 patients, RECIST 1.1) was 27.7% and the “median duration of response (DOR)” value ([10]; 10 mg/kg intravenously, days 1 and 8 of a 21-day cycle) was 7.2 months and 7.1 months. The complete responses ([10]; 112 patients) was 5.4% and the partial responses ([10]; 112 patients) was 22.3%.
